According to patent US20240252501A1 (MORGANDANE SCIENTIFIC, LLC, priority 2016, published 2024):
Where two headings read alike, the source gives them in different places.

What was measured:
P-gp [1] = target: T1, P-gp (Homo sapiens, UniProt P08183); conditions: cited from earlier work
[2] = fed subjects, studies 10989 and 11938, single 20 mg; cited from earlier work
[3] = Reported rivaroxaban serious bleeding adverse events; format: in vivo, human; conditions: concomitantly administered patients, who are 22% of total population receiving rivaroxaban
Source text: 8, 2015, American Heart Association, Scientific Sessions 2015, and published at http://www.abstractsonline.com/pp8/#!/3795/presentation/37668).

[4] = cited from earlier work
Factor Xa [5] = target: T2, Factor Xa (Homo sapiens, UniProt P00742); assay: Factor Xa activity in subjects; format: in vivo; conditions: concomitant verapamil vs rivaroxaban alone
T2 construct: host or cells: human subjects (ex vivo pharmacodynamics)
Source text: (§1) Additional pharmacodynamic metrics are also gathered for each patient, including, but not limited to: prothrombin time (using the STAR Neoplastin® method) and Factor Xa activity.

[6] = cited from earlier work; remark: listed apart in the source
[7] = Example 1 rivaroxaban-verapamil drug-drug interaction study: rivaroxaban plasma levels; format: in vivo, human; conditions: concomitant verapamil vs rivaroxaban alone
Procedure: Cmax and AUC values for each dose are calculated.

[8] = Relationship between steady state rivaroxaban AUC and risk of major bleeding (FIG. 5); format: in vivo, human
Procedure: All show the geometric mean plus or minus one standard deviation. […] These four show the geometric mean and the full minimum and maximum subject value range.
Group “c” represents the average of the three subjects in Group “b” who had the highest AUCinf, which was about 8,143 μg·hr/L. The risk of major bleeding of the subjects in Group “c” were at least 5 times higher compared to the populations in Group “a” and not even visible on this scale.

[9] = Plasma rivaroxaban concentration-time data and noncompartmental PK: single 20 mg rivaroxaban alone (Period I) vs with steady-state verapamil 360 mg (Period III), mild renal impairment or normal renal function; conditions: for CL/F / half-life / Tmax: human, in vivo; for CL/F: CL/F/kg; for half-life: t1/2
Procedure: Subjects with either mild renal impairment or with normal renal function were enrolled.
Renal function of the subjects was determined by measuring creatinine clearance (CLcr) rates. Subjects who had CLCr≥90 ml/min were categorized as having normal renal function whereas subjects who had CLcr 50-79 ml/min were categorized as mild renal impaired. Blood samples were collected and processed according to the standard protocols.

[10] = cited from earlier work; remark: listed apart in the source
prothrombin time = assay: Prothrombin time (STAR Neoplastin method); format: in vivo, human
Source text: As used herein, the term “prothrombin time” (PT) refers to a blood test that measures how long it takes blood to clot. In some embodiments, a prothrombin time test can be used to measure of a patient's haemostasis. In some embodiments, PT can be used to measure the effectiveness or exposure to a blood clotting drug. Persons having skill in the art sometimes interchangeably refer to a PT test as an INR. […] Additionally, PT measurements are subject to variability based on the test reagent and laboratory test ranges determined by each institution.
as §1
Blood samples were collected and processed according to the standard protocols.

Factor Xa [11] = target: T2, Factor Xa; conditions: 10 mg dose, cited from earlier work
P-gp [12] = target: T1, P-gp; conditions: cell monolayers in vitro; cited from earlier work
[13] = in vivo; cited from earlier work
[14] = Period III (rivaroxaban and verapamil), Group 2: Normal Renal Function, individual subjects
[15] = single 10 mg dose with a strong CYP3A4/Pgp inhibitor

T2 sequence (P00742 235-488 limits assumed): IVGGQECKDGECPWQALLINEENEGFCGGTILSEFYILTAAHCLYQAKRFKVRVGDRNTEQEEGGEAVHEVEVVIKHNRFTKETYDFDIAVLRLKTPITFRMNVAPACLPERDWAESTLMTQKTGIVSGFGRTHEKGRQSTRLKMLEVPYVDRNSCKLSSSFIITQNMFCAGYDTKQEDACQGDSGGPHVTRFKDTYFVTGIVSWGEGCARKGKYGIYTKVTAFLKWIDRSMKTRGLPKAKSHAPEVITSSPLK
T2 sequence (P00742 41-179 partner limits assumed): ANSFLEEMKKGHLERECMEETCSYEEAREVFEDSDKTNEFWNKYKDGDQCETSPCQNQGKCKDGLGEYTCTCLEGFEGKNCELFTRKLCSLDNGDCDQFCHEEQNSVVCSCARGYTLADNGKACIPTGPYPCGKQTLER
T1 sequence (P08183 whole entry): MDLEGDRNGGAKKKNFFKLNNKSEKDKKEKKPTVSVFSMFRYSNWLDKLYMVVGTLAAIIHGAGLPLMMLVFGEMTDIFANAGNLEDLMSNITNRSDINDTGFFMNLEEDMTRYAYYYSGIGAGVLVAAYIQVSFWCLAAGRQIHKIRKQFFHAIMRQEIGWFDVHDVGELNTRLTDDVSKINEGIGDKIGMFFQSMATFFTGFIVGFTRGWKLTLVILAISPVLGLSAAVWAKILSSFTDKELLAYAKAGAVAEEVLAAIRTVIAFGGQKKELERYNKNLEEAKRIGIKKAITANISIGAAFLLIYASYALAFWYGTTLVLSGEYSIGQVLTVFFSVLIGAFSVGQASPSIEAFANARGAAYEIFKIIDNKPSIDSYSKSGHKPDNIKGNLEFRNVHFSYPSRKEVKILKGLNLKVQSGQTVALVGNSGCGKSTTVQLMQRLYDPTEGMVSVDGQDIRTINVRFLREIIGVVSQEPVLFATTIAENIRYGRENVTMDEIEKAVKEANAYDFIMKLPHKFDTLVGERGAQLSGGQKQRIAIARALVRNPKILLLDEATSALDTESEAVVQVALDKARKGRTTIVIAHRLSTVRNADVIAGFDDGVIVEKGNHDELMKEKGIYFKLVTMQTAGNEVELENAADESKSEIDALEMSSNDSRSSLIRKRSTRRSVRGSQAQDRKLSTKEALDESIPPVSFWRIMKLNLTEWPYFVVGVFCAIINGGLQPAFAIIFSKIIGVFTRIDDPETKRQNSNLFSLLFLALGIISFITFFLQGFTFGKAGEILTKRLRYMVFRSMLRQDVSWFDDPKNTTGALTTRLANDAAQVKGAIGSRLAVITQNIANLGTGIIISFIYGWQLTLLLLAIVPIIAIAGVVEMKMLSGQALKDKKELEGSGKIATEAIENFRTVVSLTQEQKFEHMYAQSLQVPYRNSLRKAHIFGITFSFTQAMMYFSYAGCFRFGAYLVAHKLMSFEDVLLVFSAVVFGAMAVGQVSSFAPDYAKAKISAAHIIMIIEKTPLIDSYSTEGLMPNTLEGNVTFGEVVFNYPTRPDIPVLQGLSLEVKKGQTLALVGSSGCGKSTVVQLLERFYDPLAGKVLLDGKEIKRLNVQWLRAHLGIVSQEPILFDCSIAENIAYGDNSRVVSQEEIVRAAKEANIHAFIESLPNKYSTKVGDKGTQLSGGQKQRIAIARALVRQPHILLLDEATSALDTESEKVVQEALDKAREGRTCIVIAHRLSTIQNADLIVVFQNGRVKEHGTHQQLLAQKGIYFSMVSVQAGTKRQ

For `COc1ccc(CCNCCCC(C#N)(c2ccc(OC)c(OC)c2)C(C)C)cc1OC` (centres unmarked) [norverapamil], the “inhibitory potential toward P-gp” value (P-gp [1]) is listed as “have inhibitory potential toward P-gp”.

In the case of `O=C(NC[C@H]1CN(c2ccc(N3CCOCC3=O)cc2)C(=O)O1)c1ccc(Cl)s1` [rivaroxaban, Rivaroxaban], the “AUC, average geometric mean (Group a)” value [2] is listed as “approximately 2,026 μg·hr/L”, the “share of reported rivaroxaban serious bleeding adverse events” value [3] is listed as 30% and the rivaroxaban exposure increase ([4]; concomitant clarithromycin) is listed as 54%. The rivaroxaban exposure increase ([4]; concomitant erythromycin) was 34%, the rivaroxaban exposure increase ([4]; concomitant fluconazole) was 42% and the “Factor Xa inhibition” value (Factor Xa [5]) was “increased Factor Xa inhibition”. For the same compound, the “rivaroxaban dose eliminated in urine as unprocessed active drug” value ([6]; in vivo) was roughly 36%, the “rivaroxaban dose eliminated through active renal secretion” value ([6]; in vivo) was 30% and the “rivaroxaban dose eliminated through glomerular filtration” value ([6]; in vivo) was 6%. The “share of rivaroxaban clearance by CYP3A4” value ([6]; in vivo) was “approximately 18%”, the “share of rivaroxaban metabolized by CYP2J2” value ([6]; in vivo) was 14% and the “rivaroxaban dose subject to metabolic degradation” value ([6]; liver oxidative and hydrolytic pathways) was “Approximately two-thirds”. The rivaroxaban plasma concentrations [7] was “higher rivaroxaban plasma concentrations”, the “risk of major bleeding (Group a)” value ([8]; AUC approximately 2,026 μg·hr/L) was “about 3%” and the “risk of major bleeding vs Group a (Group b)” value ([8]; mild renal impairment, 20 mg rivaroxaban and 360 mg verapamil) was 2.5 times. For the same compound, the “risk of major bleeding vs Group a (Group c)” value ([8]; three Group b subjects with highest AUCinf) was “at least 5 times”, the CL/F/kg [9, 14] was 1.18 mL/min/kg and the CL/F ([9]; 20 mg, Period I (rivaroxaban alone), Group 2: Normal Renal Function, outlier sample excluded, arithmetic mean) was 1.8 mL/min/kg. For the same compound, the half-life ([9]; 20 mg) was 9.44 h, the Tmax ([9]; 20 mg) was 0.5 h and the CL/F [9, 14] was 1.11 mL/min/kg. It also gave a CL/F ([9]; Period III (rivaroxaban and verapamil), Group 2: Normal Renal Function, median) of 1.11 mL/min/kg, a half-life [9] of 6.56 h and a Tmax [9] of 0.5 h. For the same compound, the “Cmax, upper boundary of 90% confidence interval” value ([10]; 20 mg rivaroxaban with food, study 11938) was 317 ng/mL, the “steady state AUC, upper bound of 90% confidence interval (Label A)” value ([10]; 20 mg rivaroxaban) was “about 3,792 μg·hr/L” and the “steady state Cmax, upper bound of 90% confidence interval” value ([10]; 20 mg rivaroxaban) was 275 ng/mL. The Cmax [10, 15] was 268 ng/mL, the “estimated steady state AUC (Label B)” value [10, 15] was “about 3,404 μg·hr/L” and the “steady state AUC, upper boundary of 90% confidence interval (Label C)” value ([10]; single 20 mg dose after a meal) was “about 2,448 μg·hr/L”. For the same compound, the “prothrombin time (PT)” value (prothrombin time; concomitant verapamil vs rivaroxaban alone) was “prolonged PT”, the “relationship between pharmacokinetics (plasma concentration) and pharmacodynamics (PT)” value (prothrombin time; normal renal function and mild renal insufficiency, Day 1 and Day 15) was “clear linear relationship” and the “AUEC for Factor Xa inhibition vs healthy subjects” value (Factor Xa [11]; mild renal impairment) was 1.5 fold. The “AUEC for Factor Xa inhibition vs healthy subjects” value (Factor Xa [11]; moderate renal impairment) was 1.86 fold and the “AUEC for Factor Xa inhibition vs healthy subjects” value (Factor Xa [11]; severe renal impairment) was 2.0 fold.

In the case of `CC[C@H]1OC(=O)[C@H](C)[C@@H](O[C@H]2C[C@@](C)(OC)[C@@H](O)[C@H](C)O2)[C@H](C)[C@@H](O[C@@H]2O[C@H](C)C[C@H](N(C)C)[C@H]2O)[C@](C)(O)C[C@@H](C)C(=O)[C@H](C)[C@@H](O)[C@]1(C)O` [erythromycin], the “inhibition of P-gp-mediated efflux of rivaroxaban” value (P-gp [12]) is given as “did not inhibit” and the “renal elimination (unchanged)” value [13] is given as 2-15%.
